Literature values in patent publication US8470831B2, “Acrylamido derivatives useful as inhibitors of the mitochondrial permeability transition” (Cogenia SRL, priority 2008, dated 2013).

Legend:
[1] = test system: rat liver mitochondrial membranes
[2] = mdx and Scgd-/- mice
[3] = mouse, myocardial infarction and reperfusion injury
[4] = rat, transient focal cerebral ischemia
[5] = rat, TNF-α-dependent acute inflammatory hepatitis
[6] = patients, one month treatment

For `COc1ccc(CN2CCN(CCCSc3cc(C(C)(C)C)c(O)c(C(C)(C)C)c3)CC2)c(OC)c1OC` [Compound S-15176, N-[(3,5-di-tert-butyl-4-hydroxy-1-thiophenyl)]-3-propyl-N′-(2,3,4-trimethoxybenzyl)piperazine], the “mitochondrial membrane depolarization and respiration uncoupling” value [1] is listed as “induces depolarization of the mitochondrial membrane and respiration uncoupling”.
In the case of `C/C=C/C[C@@H](C)[C@@H](O)[C@H]1C(=O)N[C@@H](CC)C(=O)N(C)[C@H](C)C(=O)N(CC)[C@@H](C(C)C)C(=O)N[C@@H](C(C)C)C(=O)N(C)[C@@H](CC(C)C)C(=O)N[C@@H](C)C(=O)N[C@H](C)C(=O)N(C)[C@@H](CC(C)C)C(=O)N(C)[C@@H](CC(C)C)C(=O)N(C)[C@@H](C(C)C)C(=O)N1C` [Debio-025], the “mitochondrial swelling and necrotic disease” value [2] is listed as “reduced mitochondrial swelling and necrotic disease” and the infarct size [3] is listed as “reduced infarct size”.
In the case of `C/C=C/C[C@@H](C)[C@@H](O)[C@H]1C(=O)N[C@@H](CC)C(=O)N(C)CC(=O)N(C)[C@@H]([C@@H](C)CC)C(=O)N[C@@H](C(C)C)C(=O)N(C)[C@@H](CC(C)C)C(=O)N[C@@H](C)C(=O)N[C@H](C)C(=O)N(C)[C@@H](CC(C)C)C(=O)N(C)[C@@H](CC(C)C)C(=O)N(C)[C@@H](C(C)C)C(=O)N1C` [NIM811], the protection [4] is listed as 40%.
For Cyclosporin A, the liver damage [5] is given as “strongly reduces liver damage” and the mitochondrial function [6] is given as “amelioration of mitochondrial function”.
